# Patent US9210931B2, “Pesticidal compositions and processes related thereto” (Dow AgroSciences LLC, priority 2010, dated 2015)
# Experiments:
# [1] = tested on: Sweetpotato whitefly-crawler (Bemisia tabaci) (BEMITA); assay: Insecticidal test for sweetpotato whitefly-crawler in foliar spray assay on cotton plants; format: in vivo; conditions: 200 ppm foliar spray on cotton plants, graded after 8-9 days, Abbott-corrected % control, read-out: BEMITA % Ctrl @ 200 ppm
# Experimental: Cotton plants grown in 3-inch pots, with 1 small (3-5 cm) true leaf, were used as test substrate. The plants were placed in a room with whitefly adults. Adults were allowed to deposit eggs for 2-3 days. After a 2-3 day egg-laying period, plants were taken from the adult whitefly room. Adults were blown off leaves using a hand-held Devilbiss sprayer (23 psi). Plants with egg infestation (100-300 eggs per plant) were placed in a holding room for 5-6 days at 82° F. and 50% RH for egg hatch and crawler stage to develop. Four cotton plants were used for each treatment. Compounds (2 mg) were dissolved in 1 mL of acetone solvent, forming stock solutions of 2000 ppm. The stock solutions were diluted 10× with 0.025% Tween 20 in H2O to obtain a test solution at 200 ppm. A hand-held Devilbiss sprayer was used for spraying a solution to both sides of cotton leaf until runoff. Reference plants (solvent check) were sprayed with the diluent only. Treated plants were held in a holding room for 8-9 days at approximately 82° F. and 50% RH prior to grading. Evaluation was conducted by counting the number of live nymphs per plant under a microscope. Insecticidal activity was measured by using Abbott's correction formula and presented in “Table 4. Biological Data for GPA (MYZUPE) and sweetpotato whitefly-crawler (BEMITA)” (see column “BEMITA”): Corrected % Control=100*(X−Y)/X • where • X=No. of live nymphs on solvent check plants • Y=No. of live nymphs on treated plants Pesticidally Acceptable Acid Addition Salts, Salt Derivatives, Solvates, Ester Derivatives, Polymorphs, Isotopes and Radionuclides
# [2] = tested on: Green Peach Aphid (Myzus persicae) (MYZUPE); assay: Bioassay on green peach aphid (GPA), foliar spray on cabbage seedlings; format: in vivo; conditions: 72 h, 200 ppm foliar spray on cabbage seedlings, graded after three days, Abbott-corrected % control, read-out: MYZUPE % Ctrl @ 200 ppm
# Experimental: Certain molecules disclosed in this document were tested against GPA using procedures described in the following example. In the reporting of the results, the “Table 3: GPA (MYZUPE) and sweetpotato whitefly-crawler (BEMITA) Rating Table” was used (See Table Section).
# Cabbage seedlings grown in 3-inch pots, with 2-3 small (3-5 cm) true leaves, were used as test substrate. The seedlings were infested with 20-50 GPA (wingless adult and nymph stages) one day prior to chemical application. Four pots with individual seedlings were used for each treatment. Test compounds (2 mg) were dissolved in 2 mL of acetone/methanol (1:1) solvent, forming stock solutions of 1000 ppm test compound. The stock solutions were diluted 5× with 0.025% Tween 20 in H2O to obtain the solution at 200 ppm test compound. A hand-held aspirator-type sprayer was used for spraying a solution to both sides of […] leaves until runoff. Reference plants (solvent check) were sprayed with the diluent only containing 20% by volume of acetone/methanol (1:1) solvent. Treated plants were held in a holding room for three days at approximately 25° C. and ambient relative humidity (RH) prior to grading. Evaluation was conducted by counting the number of live aphids per plant under a microscope. Percent Control was measured by using Abbott's correction formula (W. S. Abbott, “A Method of Computing the Effectiveness of an Insecticide” J. Econ. Entomol. 18 (1925), pp. 265-267) as follows. Corrected % Control=100*(X−Y)/X • where • X=No. of live aphids on solvent check plants and • Y=No. of live aphids on treated plants
# Biological Data for GPA (MYZUPE) and sweetpotato whitefly-crawler (BEMITA)” (See Table Section).
melting point,SMILES,inhibition at 200 ppm [1],inhibition at 200 ppm [2]
122 to 125 °C,Cc1nc(-c2cccnc2)cn1N(C)C(=O)C(C)C [Compound 1],0 to 80%,0 to 80%
–,"CSC(C)CC(=O)N(C)n1cc(-c2cccnc2)nc1C (centres unmarked) [Compound 2, N-Methyl-N-(2-methyl-4-pyridin-3-yl-imidazol-1-yl)-3-methylsulfanyl-butramide]",< 0%,0 to 80%
–,"Cc1nc(-c2cccnc2)cn1N(C)C(=O)OC(C)(C)C [Compound 3, Methyl-(2-methyl-4-pyridin-3-yl-imidazol-1-yl)-carbamic acid tert-butyl ester]",0 to 80%,0 to 80%
–,"Cc1nc(-c2cccnc2)c(C)n1NC(=O)OC(C)(C)C [Compound 4, (2,5-Dimethyl-4-pyridin-3-yl-imidazol-1-yl)-carbamic acid tert-butyl ester]",0 to 80%,< 0%
–,CC(=O)Nn1cc(-c2cccnc2)nc1C [Compound 5],80 to 100%,80 to 100%
–,CC(=O)N(C)n1cc(-c2cccnc2)nc1C [Compound 6],80 to 100%,0 to 80%
–,Cc1nc(-c2cccnc2)cn1N(C)C(=O)C(C)(C)C [Compound 7],80 to 100%,0 to 80%
130.9 to 131.5 °C,Cc1nc(-c2cccnc2)cn1N(C)C(=O)CC(F)(F)F [Compound 8],80 to 100%,0 to 80%
–,CCCCC(=O)N(C)n1cc(-c2cccnc2)nc1C [Compound 9],80 to 100%,0 to 80%
–,CSCCC(=O)N(C)n1cc(-c2cccnc2)nc1C [Compound 10],80 to 100%,0 to 80%
–,Cc1nc(-c2cccnc2)cn1N(CC1CC1)C(=O)C(C)(C)C [Compound 11],80 to 100%,0 to 80%
–,Cc1nc(-c2cccnc2)cn1N(CC1CC1)C(=O)CC(F)(F)F [Compound 12],80 to 100%,< 0%
–,CCN(C(=O)C(C)(C)C)n1cc(-c2cccnc2)nc1C [Compound 13],0 to 80%,< 0%
–,CCN(C(=O)CC(F)(F)F)n1cc(-c2cccnc2)nc1C [Compound 14],< 0%,< 0%
–,CCCCC(=O)N(CC1CC1)n1cc(-c2cccnc2)nc1C [Compound 15],80 to 100%,0 to 80%
–,CSCC(C)(C)C(=O)N(C)n1cc(-c2cccnc2)nc1C [Compound 16],< 0%,< 0%
–,CCN(C(=O)C(C)C)n1cc(-c2cccnc2)nc1C [Compound 17],0 to 80%,0 to 80%
–,CCN(C(=O)CCSC)n1cc(-c2cccnc2)nc1C [Compound 18],80 to 100%,80 to 100%
–,CCCCC(=O)N(CC)n1cc(-c2cccnc2)nc1C [Compound 19],80 to 100%,0 to 80%
–,Cc1nc(-c2cccnc2)cn1N(CC1CC1)C(=O)C(C)C [Compound 20],< 0%,0 to 80%
–,CSCCC(=O)N(CC1CC1)n1cc(-c2cccnc2)nc1C [Compound 21],80 to 100%,0 to 80%
–,Cc1nc(-c2cncc(F)c2)cn1N(C)C(=O)C(C)C [Compound 22],80 to 100%,0 to 80%
–,CSCCC(=O)N(C)n1cc(-c2cncc(F)c2)nc1C [Compound 23],80 to 100%,80 to 100%
–,CCN(C(=O)C(C)C)n1cc(-c2cncc(F)c2)nc1C [Compound 24],0 to 80%,0 to 80%
–,CCN(C(=O)CCSC)n1cc(-c2cncc(F)c2)nc1C [Compound 25],80 to 100%,0 to 80%
–,Cc1nc(-c2cncc(F)c2)cn1N(CC1CC1)C(=O)C(C)C [Compound 26],0 to 80%,0 to 80%
–,CSCCC(=O)N(CC1CC1)n1cc(-c2cncc(F)c2)nc1C [Compound 27],80 to 100%,0 to 80%
129 to 139 °C,"CC(=O)Nn1cc(-c2cccnc2)nc1Cl [Compound 39, N-(2-Chloro-4-(pyridin-3-yl)-1H-imidazol-1-yl)acetamide]",–,–
–,"CCN(C(=O)OC(C)(C)C)n1cc(-c2cccnc2)nc1Cl [Compound 41, tert-Butyl (2-chloro-4-(pyridin-3-yl)-1H-imidazol-1-yl)(ethyl)carbamate]",80 to 100%,0 to 80%
